Source: ChEMBL document CHEMBL5131413, “Cytotoxic effects of the biflavonoids isolated from Selaginella trichoclada on MCF-7 cells and its potential mechanism” (Bioorg Med Chem Lett, 2022)
Activity calls are given as the source filed them. The calls are words filed in the database; no cut-off is given here.

Columns and labels:
Type in all cases: functional, cell-based
MCF7 [1] = assay: Cytotoxicity against human MCF7 cells measured after 24 hrs by MTT assay; settings: MCF7, 24 h
MCF7 [2] = assay: Downregulation of LPCAT3 gene in human MCF7 cells at 5 uM by heat map analysis
MCF7 [3] = assay: Downregulation of NOXA1 gene in human MCF7 cells at 5 uM by heat map analysis
MCF7 [4] = assay: Downregulation of TP53 gene in human MCF7 cells at 5 uM by heat map analysis
MCF7 [5] = assay: Downregulation of ACSL4 gene in human MCF7 cells at 5 uM by heat map analysis
MCF7 [6] = assay: Downregulation of ATG7 gene in human MCF7 cells at 5 uM by heat map analysis
MCF7 [7] = assay: Downregulation of NOXO1 gene in human MCF7 cells at 5 uM by heat map analysis
MCF7 [8] = assay: Downregulation of STEAP3 gene in human MCF7 cells at 5 uM by heat map analysis
MCF7 [9] = assay: Downregulation of ACSL5 gene in human MCF7 cells at 5 uM by heat map analysis

SMILES | IC50 (MCF7 [1]) [µM] | also measured
O=c1[nH]cc(F)c(=O)[nH]1 [FLUOROURACIL] | 2.2 | –
COc1ccc(-c2cc(=O)c3c(O)cc(O)c(-c4cc(-c5cc(=O)c6c(O)cc(O)cc6o5)ccc4O)c3o2)cc1 [PODOCARPUSFLAVONE A] | 35.1 | –
O=c1cc(-c2ccc(O)c(-c3c(O)cc(O)c4c(=O)cc(-c5ccc(O)cc5)oc34)c2)oc2cc(O)cc(O)c12 [AMENTOFLAVONE] | 75.4 | –
Cc1c(O)cc2c(c1O)C(=O)C[C@H](c1ccc(Oc3cc(-c4cc(=O)c5c(O)cc(O)cc5o4)ccc3O)cc1)O2 | 32.2 | –
COc1cc(O)c2c(=O)cc(-c3ccc(O)c(-c4c(O)cc(O)c5c(=O)cc(-c6ccc(O)cc6)oc45)c3)oc2c1 [SEQUOIAFLAVONE] | 58.4 | –
O=C1CC(c2ccc(O)c(-c3c(O)cc4c(c3O)C(=O)CC(c3ccc(O)cc3)O4)c2)Oc2cc(O)cc(O)c21 (stereo not drawn) | 71.2 | –
O=C1C[C@H](c2ccc(Oc3cc(-c4cc(=O)c5c(O)cc(O)cc5o4)ccc3O)cc2)Oc2cc(O)cc(O)c21 | 7.7 | –
COc1cc(O)c2c(=O)cc(-c3ccc(O)c(-c4c(O)cc5oc(-c6ccc(O)cc6)cc(=O)c5c4OC)c3)oc2c1 | 6.9 | inhibition (MCF7 [2]): Active; inhibition (MCF7 [3]): Active; inhibition (MCF7 [4]): Active; inhibition (MCF7 [5]): Active; inhibition (MCF7 [6]): Active; inhibition (MCF7 [7]): Active; inhibition (MCF7 [8]): Active; inhibition (MCF7 [9]): Active
O=c1cc(-c2ccc(Oc3cc(-c4cc(=O)c5c(O)cc(O)cc5o4)ccc3O)cc2)oc2cc(O)cc(O)c12 [OCHNAFLAVONE] | 54.5 | –
COc1ccc(-c2cc(=O)c3c(O)cc(O)cc3o2)cc1-c1c(O)cc(O)c2c(=O)cc(-c3ccc(O)cc3)oc12 [BILOBETIN] | 26.5 | –
